From patent US11051515B2, “3-acyl-benzamides and their use as herbicides” (Bayer Aktiengesellschaft, priority 2017, dated 2021)

Experiments:
STEME [1] = assay: Post-emergence action against STEME; type: in vivo, Stellaria media; conditions: post-emergence, dosage 80 g/ha
Method in brief: (§1)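 Post-emergence foliar spray on greenhouse plants at the one-leaf stage, using wettable-powder or emulsion-concentrate formulations in water (600 to […], plus 0.2% wetting agent). Damage scored by eye roughly 3 weeks later against untreated plants: 0% = like control, 100% = dead.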

VERPE [2] = assay: Pre-emergence action against VERPE; type: in vivo, Veronica persica; conditions: Dosage 320 g/ha, pre-emergence
Method in brief: (§2)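 Seeds sown in sandy loam in wood-fiber pots and covered with soil. Greenhouse growth; visual damage scored after 3 weeks versus untreated controls (100% = dead, 0% = like control).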

AMARE [3] = assay: Pre-emergence action against AMARE; type: in vivo, Amaranthus retroflexus; conditions: pre-emergence, dosage 320 g/ha, scored visually after 3 weeks vs untreated controls
Method in brief: as §2

LOLRI = assay: Pre-emergence action against LOLRI; type: in vivo, Lolium rigidum; conditions: dosage 320 g/ha, scored visually after 3 weeks vs untreated controls
Method in brief: as §2

VERPE [4] = assay: Post-emergence action against VERPE; type: in vivo, Veronica persica; conditions: dosage 80 g/ha
Method in brief: as §1

ECHCG [5] = assay: Post-emergence action against ECHCG; type: in vivo, Echinochloa crus-galli; conditions: post-emergence, dosage 80 g/ha, visual assessment about 3 weeks after treatment vs untreated controls
Method in brief: as §1

ABUTH [6] = assay: Pre-emergence action against ABUTH; type: in vivo, Abutilon theophrasti; conditions: pre-emergence, dosage 320 g/ha, scored visually after 3 weeks vs untreated controls
Method in brief: as §2

AMARE [7] = assay: Post-emergence action against AMARE; type: in vivo, Amaranthus retroflexus; conditions: post-emergence, dosage 80 g/ha, visual assessment about 3 weeks after treatment vs untreated controls
Method in brief: as §1

MATIN [8] = assay: Post-emergence action against MATIN; type: in vivo, Matricaria inodora; conditions: post-emergence, dosage 80 g/ha, visual assessment about 3 weeks after treatment vs untreated controls
Method in brief: as §1

DIGSA [9] = assay: Pre-emergence action against DIGSA; type: in vivo, Digitaria sanguinalis; conditions: dosage 320 g/ha, scored visually after 3 weeks vs untreated controls
Method in brief: as §2

ALOMY [10] = assay: Post-emergence action against ALOMY; type: in vivo, Alopecurus myosuroides; conditions: Dosage 80 g/ha, post-emergence
Method in brief: as §1

SETVI [11] = assay: Post-emergence action against SETVI; type: in vivo, Setaria viridis; conditions: post-emergence, dosage 80 g/ha, visual assessment about 3 weeks after treatment vs untreated controls
Method in brief: as §1

STEME [12] = assay: Pre-emergence action against STEME; type: in vivo, Stellaria media; conditions: Dosage 320 g/ha, pre-emergence
Method in brief: as §2

VIOTR [13] = assay: Post-emergence action against VIOTR; type: in vivo, Viola tricolor; conditions: post-emergence, dosage 80 g/ha
Method in brief: as §1

MATIN [14] = assay: Pre-emergence action against MATIN; type: in vivo, Matricaria inodora; conditions: Dosage 320 g/ha, pre-emergence
Method in brief: as §2

VIOTR [15] = assay: Pre-emergence action against VIOTR; type: in vivo, Viola tricolor; conditions: Dosage 320 g/ha, pre-emergence
Method in brief: as §2

ALOMY [16] = assay: Pre-emergence action against ALOMY; type: in vivo, Alopecurus myosuroides; conditions: dosage 320 g/ha; pre-emergence; scored visually after 3 weeks vs untreated controls; 100% = plants have died, 0% = like control plants
Method in brief: as §2

ABUTH [17] = assay: Post-emergence action against ABUTH; type: in vivo, Abutilon theophrasti; conditions: post-emergence, dosage 80 g/ha, visual assessment about 3 weeks after treatment vs untreated controls
Method in brief: as §1

ECHCG [18] = assay: Pre-emergence action against ECHCG; type: in vivo, Echinochloa crus-galli; conditions: pre-emergence, dosage 320 g/ha, scored visually after 3 weeks vs untreated controls
Method in brief: as §2

DIGSA [19] = assay: Post-emergence action against DIGSA; type: in vivo, Digitaria sanguinalis; conditions: dosage 80 g/ha, visual assessment about 3 weeks after treatment vs untreated controls
Procedure: Seeds of monocotyledonous and dicotyledonous weed and crop plants are laid out in sandy loam soil in wood-fiber pots, covered with soil and cultivated in a greenhouse under good growth conditions. 2 to 3 weeks after sowing, the test plants are treated at the one-leaf stage. The compounds of the invention, formulated in the form of wettable powders (WP) or as emulsion concentrates (EC), are then sprayed onto the green parts of the plants in the form of an aqueous suspension or emulsion at a water application rate equating to […], with addition of 0.2% wetting agent. After the test plants have been left to stand in the greenhouse under optimal growth conditions for about 3 weeks, the action of the preparations is assessed visually in comparison to untreated controls (herbicidal action in percent (%): 100% activity=the plants have died, 0% activity=like control plants). […] At the same time, inventive compounds leave Gramineae crops such as barley, wheat, rye, millet/Sorghum, corn or rice virtually undamaged when applied post-emergence, even at high active ingredient dosages. In addition, some substances are also harmless to dicotyledonous crops such as soya, cotton, oilseed rape, sugar beet or potatoes. Some of the compounds according to the invention have high selectivity and are therefore suitable for controlling unwanted vegetation in agricultural crops by the post-emergence method. The data of Tables B18 to B34 below illustrate, in an exemplary manner, the […] herbicidal action of the compounds according to the invention, the herbicidal activity being stated in percent.

PHBPU [20] = assay: Post-emergence action against PHBPU; type: in vivo, Pharbitis purpurea; conditions: post-emergence, dosage 80 g/ha
Method in brief: as §1

SETVI [21] = assay: Pre-emergence action against SETVI; type: in vivo, Setaria viridis; conditions: pre-emergence, dosage 320 g/ha, scored visually after 3 weeks vs untreated controls
Method in brief: as §2

PHBPU [22] = assay: Pre-emergence action against PHBPU; type: in vivo, Pharbitis purpurea; conditions: Dosage 320 g/ha, pre-emergence
Method in brief: as §2

AVEFA [23] = assay: Post-emergence action against AVEFA; type: in vivo, Avena fatua; conditions: post-emergence, dosage 80 g/ha, visual assessment about 3 weeks after treatment vs untreated controls
Method in brief: as §1

AVEFA [24] = assay: Pre-emergence action against AVEFA; type: in vivo, Avena fatua; conditions: dosage 320 g/ha, scored visually after 3 weeks vs untreated controls
Method in brief: as §2

POLCO [25] = assay: Post-emergence action against POLCO; type: in vivo, Polygonum convolvulus; conditions: post-emergence, dosage 80 g/ha
Method in brief: as §1

POLCO [26] = assay: Pre-emergence action against POLCO; type: in vivo, Polygonum convolvulus; conditions: Dosage 320 g/ha, pre-emergence
Method in brief: as §2

Row | SMILES | Post-emergence action against STEME (STEME [1]) | Pre-emergence action against VERPE (VERPE [2]) [%] | Pre-emergence action against AMARE (herbicidal activity) (AMARE [3]) [%] | Post-emergence action against VERPE (VERPE [4]) | Post-emergence action against ECHCG (herbicidal action in percent) (ECHCG [5]) [%] | Pre-emergence action against ABUTH (herbicidal activity) (ABUTH [6]) [%] | Post-emergence action against AMARE (herbicidal action in percent) (AMARE [7]) [%] | Post-emergence action against MATIN (herbicidal action in percent) (MATIN [8]) [%] | Pre-emergence action against DIGSA (herbicidal activity) (DIGSA [9]) [%] | Post-emergence action against ALOMY (ALOMY [10]) [%] | Post-emergence action against SETVI (herbicidal action in percent) (SETVI [11]) [%] | Pre-emergence action against STEME (STEME [12]) [%] | Post-emergence action against VIOTR (VIOTR [13]) | Pre-emergence action against MATIN (MATIN [14]) [%] | Pre-emergence action against VIOTR (VIOTR [15]) [%] | Pre-emergence action against ALOMY (herbicidal activity in percent) (ALOMY [16]) [%] | Post-emergence action against ABUTH (herbicidal action in percent) (ABUTH [17]) [%] | Pre-emergence action against ECHCG (herbicidal activity) (ECHCG [18]) [%] | Post-emergence action against DIGSA (herbicidal action in percent) (DIGSA [19]) [%] | Post-emergence action against PHBPU (PHBPU [20]) | also measured
1 | Cc1c(C(=O)Nc2nnnn2C)ccc(C(F)(F)F)c1C(=O)CCl [1-22] | 90 | 100 | 100 | 80 | 90 | 100 | 90 | 90 | 100 | 90 | 90 | 100 | 90 | 100 | 100 | 90 | 90 | 100 | 100 | 90 | Pre-emergence action against LOLRI (herbicidal activity) (LOLRI): 100%; SETVI (Table B8, pre-emergence herbicidal activity) (SETVI [21]): 100%; Pre-emergence action against PHBPU (PHBPU [22]): 90%; Post-emergence action against AVEFA (herbicidal action in percent) (AVEFA [23]): 90%; Pre-emergence action against AVEFA (herbicidal activity) (AVEFA [24]): 100%
2 | Cn1nnnc1NC(=O)c1ccc(C(F)(F)F)c(C(=O)C2CCC2)c1Cl [1-153] | 100 | 100 | 100 | 80 | 90 | 100 | 100 | 100 | 100 | 80 | 100 | 100 | 80 | 100 | 100 | 90 | 100 | 90 | 90 | 90 | Pre-emergence action against LOLRI (herbicidal activity) (LOLRI): 90%; SETVI (Table B8, pre-emergence herbicidal activity) (SETVI [21]): 100%; Pre-emergence action against PHBPU (PHBPU [22]): 80%; Pre-emergence action against AVEFA (herbicidal activity) (AVEFA [24]): 80%; Post-emergence action against POLCO (POLCO [25]): 80
3 | CCn1nnnc1NC(=O)c1ccc(C(F)(F)F)c(C(=O)CCl)c1C [2-22] | 90 | 100 | 100 | 80 | 90 | 100 | 80 | 90 | 100 | 80 | 80 | 100 | 100 | 100 | 100 | 90 | 90 | 90 | 90 | 100 | Pre-emergence action against LOLRI (herbicidal activity) (LOLRI): 90%; Pre-emergence action against POLCO (POLCO [26]): 80%; SETVI (Table B8, pre-emergence herbicidal activity) (SETVI [21]): 100%; Pre-emergence action against PHBPU (PHBPU [22]): 80%; Pre-emergence action against AVEFA (herbicidal activity) (AVEFA [24]): 100%
4 | CCCC(=O)c1c(C(F)(F)F)ccc(C(=O)Nc2nnnn2CCC)c1C [3-16] | 90 | 100 | 100 | 80 | 90 | 100 | 100 | 90 | 90 | 80 | 90 | 100 | 80 | 100 | 90 | 80 | 100 | 90 | 90 | 90 | SETVI (Table B8, pre-emergence herbicidal activity) (SETVI [21]): 100%; Pre-emergence action against PHBPU (PHBPU [22]): 80%; Pre-emergence action against AVEFA (herbicidal activity) (AVEFA [24]): 80%; Post-emergence action against POLCO (POLCO [25]): 90
